Experimental data from PubChem BioAssay (NCI).
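Where inhibition never reached the appropriate level, the endpoint shown equals the highest concentration tested. Otherwise, values were interpolated linearly from a five-concentration, 48-hour dose response in 96-well plates. TGI marks complete inhibition of growth.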

Assays:
Test in all cases: NCI-60 cell line screen, 48 h
NCI-H23 lung = system: NCI-H23 lung
UACC-257 melanoma = system: UACC-257 melanoma
SK-MEL-2 melanoma = system: SK-MEL-2 melanoma
HCC-2998 colon = system: HCC-2998 colon
LOX IMVI melanoma = system: LOX IMVI melanoma
CCRF-CEM leukemia = system: CCRF-CEM leukemia
OVCAR-8 ovarian = system: OVCAR-8 ovarian
KM12 colon = system: KM12 colon
KM20L2 colon = system: KM20L2 colon
K-562 leukemia = system: K-562 leukemia
LXFL 529 NSCLC = system: LXFL 529 NSCLC
M19-MEL melanoma = system: M19-MEL melanoma
HL-60(TB) leukemia = system: HL-60(TB) leukemia
MOLT-4 leukemia = system: MOLT-4 leukemia
SNB-75 CNS = system: SNB-75 CNS
RXF 393 renal = system: RXF 393 renal
HCT-15 colon = system: HCT-15 colon
SK-MEL-28 melanoma = system: SK-MEL-28 melanoma
SN12C renal = system: SN12C renal
HT29 colon = system: HT29 colon
U251 CNS = system: U251 CNS
SNB-19 CNS = system: SNB-19 CNS
UACC-62 melanoma = system: UACC-62 melanoma
HCT-116 colon = system: HCT-116 colon
MALME-3M melanoma = system: MALME-3M melanoma
RXF-631 renal = system: RXF-631 renal
NCI-H460 lung = system: NCI-H460 lung
SNB-78 CNS = system: SNB-78 CNS
IGROV1 ovarian = system: IGROV1 ovarian
SF-268 CNS = system: SF-268 CNS
DMS 114 small cell lung = system: DMS 114 small cell lung
EKVX NSCLC = system: EKVX NSCLC
OVCAR-5 ovarian = system: OVCAR-5 ovarian
SW-620 colon = system: SW-620 colon
DMS 273 small cell lung = system: DMS 273 small cell lung
SF-295 CNS = system: SF-295 CNS
XF 498 CNS = system: XF 498 CNS
786-0 renal = system: 786-0 renal
HOP-62 NSCLC = system: HOP-62 NSCLC
M14 melanoma = system: M14 melanoma
OVCAR-3 ovarian = system: OVCAR-3 ovarian
RPMI-8226 leukemia = system: RPMI-8226 leukemia
TK-10 renal = system: TK-10 renal
SK-OV-3 ovarian = system: SK-OV-3 ovarian
A549 NSCLC = system: A549 NSCLC
DLD-1 colon = system: DLD-1 colon
COLO 205 colon = system: COLO 205 colon
UO-31 renal = system: UO-31 renal
SK-MEL-5 melanoma = system: SK-MEL-5 melanoma
ACHN renal = system: ACHN renal
SF-539 CNS = system: SF-539 CNS
OVCAR-4 ovarian = system: OVCAR-4 ovarian
CAKI-1 renal = system: CAKI-1 renal
A498 renal = system: A498 renal

Measured: TGI

CCOP(=O)(OCC)C1CC(C)OC1=O (centres undefined)
> 100 µM: all assays above
